From the NIST ThermoML archive (doi:10.1021/je500867u) come the findings set out here.

The conditions of this series: Crystal; visual observation.

Each structure is given as a SMILES string. Numbers after ± are expanded uncertainties.

In the case of `Nc1ccc(S(=O)(=O)O)cc1` [4-aminobenzenesulfonic acid], the Normal melting temperature was determined as 288.0 ± 0.5 °C.
